The record followed here is patent publication US8987195B2 (priority 2012, dated 2015).

Molecules are shown by their SMILES. Like-named read-outs stand apart in the source and are kept apart here.

The test system of one experiment is HCV genotype 1b replicon. The experiment is described as follows: HCV replicon assay, genotype 1b replicon EC50. In kind it is cell-based, Hepatitis C virus. The settings on record: Hepatitis C virus, genotype 1b replicon, read-out: EC50 [gt-1b]. The procedure, abridged: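 Assay format: compound titration on stable replicon cells, no G418 during treatment, 24 to 48 hours. Lysates were assayed for replicon RNA (hybridization/protection or TaqMan) or luciferase; EC50 fitted to four parameters against DMSO.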

Experiment [1] concerns the target HCV NS3/4A protease genotype 1b (Hepatitis C virus genotype 1b, UniProt P26663). The experiment is described as follows: HCV NS3/4A protease time-resolved fluorescence (TRF) assay, Ki against genotype 1b. In kind it is biochemical. Particulars: IC50 [gt-1b] (nM), NS3/4A genotype 1b, enzyme 0.2 nM. The procedure, abridged: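 Ki was converted from fitted IC50 using IC50=Ki(1+[S]/KM) and 25 nM substrate. Protease (genotype 1b 0.2 nM, A156T 0.4 nM, 3a 0.025 nM) and compound were pre-mixed 30 min in pH 7.5 HEPES/NaCl/glycerol/DTT buffer. Cleavage then proceeded 2.5 h at room temperature, detected by time-resolved europium fluorescence (340/615 nm).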

As usually defined, the EC50 is the midpoint of the concentration-response curve. Broadly, the IC50 is the concentration at which inhibition is half-maximal. On to `CC1(S(=O)(=O)NC(=O)[C@@]23C[C@H]2/C=C\CCCCC[C@H](NC(=O)OC2CCC2)C(=O)N2C[C@@]4(CCc5c(c(C6CC6)nc6c(F)cccc56)O4)C[C@H]2C(=O)N3)CC1` [Example 175, cyclobutyl [(2R,6S,12Z,13aS,14aR,16aS)-5′-cyclopropyl-7′-fluoro-14a-{[(1-methylcyclopropyl)sulfonyl]carbamoyl}-5,16-dioxo-1,1′,2′,5,6,7,8,9,10,11,13a,14,14a,15,16,16a-hexadecahydrospiro[cyclopropa[e]pyrrolo[1,2-a][1,4]diazacyclopentadecine-2,3′-pyrano[2,3-c]quinolin]-6-yl]carbamate], for which the EC50 with HCV genotype 1b replicon was determined as 1670 pM. The molecule further gave an IC50 in experiment [1] of 0.028 nM.

As for `CC1(OC(=O)N[C@H]2CCCCC/C=C\[C@@H]3C[C@@]3(C(=O)NS(=O)(=O)C3(C)CC3)NC(=O)[C@@H]3C[C@]4(CCc5c(c(C6CC6)nc6c(F)cccc56)O4)CN3C2=O)CCCCC1` [Example 176, 1-methylcyclohexyl [(2R,6S,12Z,13aS,14aR,16aS)-5′-cyclopropyl-7′-fluoro-14a-{[(1-methylcyclopropyl)sulfonyl]carbamoyl}-5,16-dioxo-1,1′,2′,5,6,7,8,9,10,11,13a,14,14a,15,16,16a-hexadecahydrospiro[cyclopropa[e]pyrrolo[1,2-a][1,4]diazacyclopentadecine-2,3′-pyrano[2,3-c]quinolin]-6-yl]carbamate], the EC50 in the experiment on HCV genotype 1b replicon was 2260 pM. In experiment [1], this molecule displayed an IC50 of 0.026 nM.

With `Cc1nc2ccc(OC(F)(F)F)cc2c2c1O[C@]1(CC2)C[C@H]2C(=O)N[C@]3(C(=O)NS(=O)(=O)C4(C)CC4)C[C@H]3/C=C\CCCCC[C@H](NC(=O)OCC3COC3)C(=O)N2C1` [Example 177, oxetan-3-ylmethyl [(2R,6S,12Z,13aS,14aR,16aS)-5′-methyl-14a-{[(1-methylcyclopropyl)sulfonyl]carbamoyl}-5,16-dioxo-9′-(trifluoromethoxy)-1,1′,2′,5,6,7,8,9,10,11,13a,14,14a,15,16,16a-hexadecahydrospiro[cyclopropa[e]pyrrolo[1,2-a][1,4]diazacyclopentadecine-2,3′-pyrano[2,3-c]quinolin]-6-yl]carbamate], the EC50 with HCV genotype 1b replicon stood at 21900 pM. The IC50 in experiment [1] stood at 0.011 nM.

In the case of `COc1ccc2nc(C(C)C)c3c(c2c1)CC[C@]1(C[C@H]2C(=O)N[C@]4(C(=O)NS(=O)(=O)C5(C)CC5)C[C@H]4/C=C\CCCCC[C@H](NC(=O)OCC4COC4)C(=O)N2C1)O3` [Example 178, oxetan-3-ylmethyl [(2R,6S,12Z,13aS,14aR,16aS)-9′-methoxy-14a-{[(1-methylcyclopropyl)sulfonyl]carbamoyl}-5,16-dioxo-5′-(propan-2-yl)-1,1′,2′,5,6,7,8,9,10,11,13a,14,14a,15,16,16a-hexadecahydrospiro[cyclopropa[e]pyrrolo[1,2-a][1,4]diazacyclopentadecine-2,3′-pyrano[2,3-c]quinolin]-6-yl]carbamate], in the experiment on HCV genotype 1b replicon, the EC50 was determined as 11100 pM. The IC50 in experiment [1] came to 0.007 nM.

With `Cc1nc2ccccc2c2c1O[C@]1(CC2)C[C@H]2C(=O)N[C@]3(C(=O)NS(=O)(=O)C4(C)CC4)C[C@H]3/C=C\CCCCC[C@H](NC(=O)O[C@@H]3C[C@H]4CC[C@@H]3C4)C(=O)N2C1` [Example 179, (1R,2R,4S)-bicyclo[2.2.1]hept-2-yl [(2R,6S,12Z,13aS,14aR,16aS)-5′-methyl-14a-{[(1-methylcyclopropyl)sulfonyl]carbamoyl}-5,16-dioxo-1,1′,2′,5,6,7,8,9,10,11,13a,14,14a,15,16,16a-hexadecahydrospiro[cyclopropa[e]pyrrolo[1,2-a][1,4]diazacyclopentadecine-2,3′-pyrano[2,3-c]quinolin]-6-yl]carbamate], the EC50 in the experiment with HCV genotype 1b replicon is 200 pM. Further, the IC50 in experiment [1] is 0.012 nM.

On to `Cc1nc2ccc(OC(F)(F)F)cc2c2c1O[C@]1(CC2)C[C@H]2C(=O)N[C@]3(C(=O)NS(=O)(=O)C4(C)CC4)C[C@H]3/C=C\CCCCC[C@H](NC(=O)OC3CCC3)C(=O)N2C1` [Example 180, cyclobutyl [(2R,6S,12Z,13aS,14aR,16aS)-5′-methyl-14a-{[(1-methylcyclopropyl)sulfonyl]carbamoyl}-5,16-dioxo-9′-(trifluoromethoxy)-1,1′,2′,5,6,7,8,9,10,11,13a,14,14a,15,16,16a-hexadecahydrospiro[cyclopropa[e]pyrrolo[1,2-a][1,4]diazacyclopentadecine-2,3′-pyrano[2,3-c]quinolin]-6-yl]carbamate], for which the EC50 in the experiment with HCV genotype 1b replicon turned out to be 1720 pM. The same molecule gave an IC50 in experiment [1] of 0.012 nM.

Take `Cc1nc2ccccc2c2c1O[C@]1(CC2)C[C@H]2C(=O)N[C@]3(C(=O)NS(=O)(=O)C4(C)CC4)C[C@H]3/C=C\CCCCC[C@H](NC(=O)O[C@H]3C[C@H]4CC[C@@H]3C4)C(=O)N2C1` [Example 181, (1R,2S,4S)-bicyclo[2.2.1]hept-2-yl [(2R,6S,12Z,13aS,14aR,16aS)-5′-methyl-14a-{[(1-methylcyclopropyl)sulfonyl]carbamoyl}-5,16-dioxo-1,1′,2′,5,6,7,8,9,10,11,13a,14,14a,15,16,16a-hexadecahydrospiro[cyclopropa[e]pyrrolo[1,2-a][1,4]diazacyclopentadecine-2,3′-pyrano[2,3-c]quinolin]-6-yl]carbamate]: the EC50 in the experiment on HCV genotype 1b replicon was 390 pM. The IC50 in experiment [1] amounted to 0.017 nM.

In the case of `Cc1nc2ccc(Cl)cc2c2c1O[C@]1(CC2)C[C@H]2C(=O)N[C@]3(C(=O)NS(=O)(=O)C4(C)CC4)C[C@H]3/C=C\CCCCC[C@H](NC(=O)OC3CCCC3)C(=O)N2C1` [Example 182, cyclopentyl [(2R,6S,12Z,13aS,14aR,16aS)-9′-chloro-5′-methyl-14a-{[(1-methylcyclopropyl)sulfonyl]carbamoyl}-5,16-dioxo-1,1′,2′,5,6,7,8,9,10,11,13a,14,14a,15,16,16a-hexadecahydrospiro[cyclopropa[e]pyrrolo[1,2-a][1,4]diazacyclopentadecine-2,3′-pyrano[2,3-c]quinolin]-6-yl]carbamate], the EC50 with HCV genotype 1b replicon (K+ salt) worked out at 1700 pM. The IC50 in experiment [1] (K+ salt) was determined as 0.009 nM.

`Cc1nc2ccc(Cl)cc2c2c1O[C@]1(CC2)C[C@H]2C(=O)N[C@]3(C(=O)NS(=O)(=O)C4(C)CC4)C[C@H]3/C=C\CCCCC[C@H](NC(=O)OC(C)C)C(=O)N2C1` [Example 183, propan-2-yl [(2R,6S,12Z,13aS,14aR,16aS)-9′-chloro-5′-methyl-14a-{[(1-methylcyclopropyl)sulfonyl]carbamoyl}-5,16-dioxo-1,1′,2′,5,6,7,8,9,10,11,13a,14,14a,15,16,16a-hexadecahydrospiro[cyclopropa[e]pyrrolo[1,2-a][1,4]diazacyclopentadecine-2,3′-pyrano[2,3-c]quinolin]-6-yl]carbamate]: the EC50 with HCV genotype 1b replicon (K+ salt) came out at 1630 pM. For the same molecule, in experiment [1] (K+ salt), the IC50 is 0.008 nM.

Turning to `Cc1nc2ccc(Cl)cc2c2c1O[C@]1(CC2)C[C@H]2C(=O)N[C@]3(C(=O)NS(=O)(=O)C4(C)CC4)C[C@H]3/C=C\CCCCC[C@H](NC(=O)OC3(C)CC3)C(=O)N2C1` [Example 184, 1-methylcyclopropyl [(2R,6S,12Z,13aS,14aR,16aS)-9′-chloro-5′-methyl-14a-{[(1-methylcyclopropyl)sulfonyl]carbamoyl}-5,16-dioxo-1,1′,2′,5,6,7,8,9,10,11,13a,14,14a,15,16,16a-hexadecahydrospiro[cyclopropa[e]pyrrolo[1,2-a][1,4]diazacyclopentadecine-2,3′-pyrano[2,3-c]quinolin]-6-yl]carbamate], the EC50 with HCV genotype 1b replicon (K+ salt) stood at 4220 pM. For the same molecule, the IC50 in experiment [1] (K+ salt) is 0.004 nM.

For the molecule `Cc1nc2ccc(Cl)cc2c2c1O[C@]1(CC2)C[C@H]2C(=O)N[C@]3(C(=O)NS(=O)(=O)C4(C)CC4)C[C@H]3/C=C\CCCCC[C@H](NC(=O)OC3CCC3)C(=O)N2C1` [Example 185, cyclobutyl [(2R,6S,12Z,13aS,14aR,16aS)-9′-chloro-5′-methyl-14a-{[(1-methylcyclopropyl)sulfonyl]carbamoyl}-5,16-dioxo-1,1′,2′,5,6,7,8,9,10,11,13a,14,14a,15,16,16a-hexadecahydrospiro[cyclopropa[e]pyrrolo[1,2-a][1,4]diazacyclopentadecine-2,3′-pyrano[2,3-c]quinolin]-6-yl]carbamate], the EC50 with HCV genotype 1b replicon (K+ salt) came to 4140 pM. Also, the IC50 in experiment [1] (K+ salt) was 0.005 nM.

`CC1(C)CCCC1OC(=O)N[C@H]1CCCCC/C=C\[C@@H]2C[C@@]2(C(=O)NS(=O)(=O)C2(C)CC2)NC(=O)[C@@H]2C[C@]3(CCc4c(c(C5CC5)nc5c(F)cccc45)O3)CN2C1=O` (stereo partly drawn) [Example 187, 2,2-dimethylcyclopentyl [(2R,6S,12Z,13aS,14aR,16aS)-5′-cyclopropyl-7′-fluoro-14a-{[(1-methylcyclopropyl)sulfonyl]carbamoyl}-5,16-dioxo-1,1′,2′,5,6,7,8,9,10,11,13a,14,14a,15,16,16a-hexadecahydrospiro[cyclopropa[e]pyrrolo[1,2-a][1,4]diazacyclopentadecine-2,3′-pyrano[2,3-c]quinolin]-6-yl]carbamate]: the EC50 with HCV genotype 1b replicon came out at 8330 pM. This molecule also came in with an IC50 in experiment [1] of 0.023 nM.

Consider `Cc1nc2cc(F)c(F)cc2c2c1O[C@]1(CC2)C[C@H]2C(=O)N[C@]3(C(=O)NS(=O)(=O)C4(C)CC4)C[C@H]3/C=C\CCCCC[C@H](NC(=O)OC(C)(C)C)C(=O)N2C1` [Example 188, tert-butyl [(2R,6S,12Z,13aS,14aR,16aS)-8′,9′-difluoro-5′-methyl-14a-{[(1-methylcyclopropyl)sulfonyl]carbamoyl}-5,16-dioxo-1,1′,2′,5,6,7,8,9,10,11,13a,14,14a,15,16,16a-hexadecahydrospiro[cyclopropa[e]pyrrolo[1,2-a][1,4]diazacyclopentadecine-2,3′-pyrano[2,3-c]quinolin]-6-yl]carbamate], for which the EC50 with HCV genotype 1b replicon came out at 3850 pM. This molecule came in with an IC50 in experiment [1] of 0.006 nM.
